Results from PMC9823632, “Nitrogen Acquisition and Transport in the Ectomycorrhizal Symbiosis—Insights from the Interaction between an Oak Tree and Pisolithus tinctorius” (Plants, 2022).

Key:
QsAMT1.2-like (QsAMT1.2) = biological target: T1, QsAMT1.2-like (QsAMT1.2) (Quercus suber, UniProt Z9N9G6J3T1); test: […]-methylammonium uptake in transformed yeast, Michaelis-Menten and Lineweaver-Burk; assay type: cell-based; conditions: labelled compound; yeast 31019b; substrate of the Km taken from the methods; read-out: apparent Km
T1 construct: full-length cDNA from ectomycorrhizal cork oak roots in pDR196, expressed in yeast strain 31019b (mep1 mep2 mep3 deleted)
T1 sequence (Z9N9G6J3T1 1-510): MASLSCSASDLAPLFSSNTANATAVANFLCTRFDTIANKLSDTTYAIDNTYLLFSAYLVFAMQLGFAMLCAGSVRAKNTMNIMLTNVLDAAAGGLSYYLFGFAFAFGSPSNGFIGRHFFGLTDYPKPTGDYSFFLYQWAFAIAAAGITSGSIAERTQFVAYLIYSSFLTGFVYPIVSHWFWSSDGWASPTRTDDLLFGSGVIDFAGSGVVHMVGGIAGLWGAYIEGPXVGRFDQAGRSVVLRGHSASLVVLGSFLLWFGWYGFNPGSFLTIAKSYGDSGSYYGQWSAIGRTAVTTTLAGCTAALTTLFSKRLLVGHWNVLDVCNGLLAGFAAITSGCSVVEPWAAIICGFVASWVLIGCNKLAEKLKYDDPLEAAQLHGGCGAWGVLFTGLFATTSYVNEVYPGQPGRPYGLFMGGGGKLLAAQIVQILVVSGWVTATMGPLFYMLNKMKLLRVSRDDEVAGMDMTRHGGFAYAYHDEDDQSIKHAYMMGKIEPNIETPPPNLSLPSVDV

QsAMT3.2-like (QsAMT3.2) = biological target: T2, QsAMT3.2-like (QsAMT3.2) (Quercus suber, UniProt Z9KUH6IWZ3); test: as above; assay type: cell-based; conditions: labelled compound; yeast 31019b; substrate of the Km taken from the methods; read-out: apparent Km
T2 construct: full-length cDNA from ectomycorrhizal cork oak roots in pDR196, expressed in yeast strain 31019b (mep1 mep2 mep3 deleted)
T2 sequence (Z9KUH6IWZ3 1-486): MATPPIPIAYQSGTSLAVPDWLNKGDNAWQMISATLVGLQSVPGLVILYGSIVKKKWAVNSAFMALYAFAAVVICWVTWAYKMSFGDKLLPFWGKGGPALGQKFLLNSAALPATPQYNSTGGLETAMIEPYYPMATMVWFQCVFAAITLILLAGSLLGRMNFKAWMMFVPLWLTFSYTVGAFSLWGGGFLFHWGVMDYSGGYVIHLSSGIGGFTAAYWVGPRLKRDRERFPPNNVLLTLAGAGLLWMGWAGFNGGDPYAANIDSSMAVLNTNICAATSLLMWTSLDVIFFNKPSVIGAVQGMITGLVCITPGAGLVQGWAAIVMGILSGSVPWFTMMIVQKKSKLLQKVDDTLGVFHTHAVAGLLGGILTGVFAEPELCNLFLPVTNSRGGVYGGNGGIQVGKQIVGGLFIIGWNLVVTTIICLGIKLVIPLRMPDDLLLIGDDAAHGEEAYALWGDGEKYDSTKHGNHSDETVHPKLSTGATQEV

CN [[14C]-methylammonium]
Km (QsAMT1.2-like (QsAMT1.2)): 667 µM
Km (QsAMT3.2-like (QsAMT3.2)): 0.6 µM
